According to PubChem BioAssay AID2060894 (Molecular Pharmacology Branch, DTP, NCI, 2025):
“And” between values parts separate entries of the source, which are not always exact repeats. Identical values can stand only once. Blank lines part the entries; values can stand above or below the compound they belong to.

System: K12877-001-R-J1-PDC complex spheroid viability
Assay: Anticancer human tumor K12877-001-R-J1-PDC patient-derived lung adenocarcinoma cell line growth inhibition [RAS]
Conditions: for viability, T/C: stronger effect = lower value
In short: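 Tumour cells grown as complex spheroids with HUVEC endothelial cells and mesenchymal stem cells, treated with RAS pathway inhibitor combinations. Each agent spans half-log steps from near clinical Cmax, or 10 microM where Cmax is unknown.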
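Further: spheroids exposed to agents for one week before readout.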

IC50 (curve of first compound, second compound 0.000949 µM): > 10000 nM
IC50 (curve of first compound, second compound 0.003 µM): > 10000 nM
IC50 (curve of first compound, second compound 0.00949 µM): > 10000 nM
IC50 (curve of first compound, second compound 0.03 µM): > 10000 nM
IC50 (curve of first compound, second compound 0.0949 µM): > 10000 nM
IC50 (curve of first compound, second compound 0.3 µM): 8660 nM
Structure (SMILES): Cc1nc(N2CCC3(CC2)COC(C)C3N)c(CO)nc1Sc1ccnc(N)c1Cl (stereo unspecified) + CCn1c(-c2cc(N3CCN(C)CC3)cnc2C(C)OC)c2c3cc(ccc31)-c1csc(n1)CC(NC(=O)C1CC1C)C(=O)N1CCCC(N1)C(=O)OCC(C)(C)C2
viability, T/C (second compound 0.000949 µM, first compound 0.0316 µM): 77.8%
viability, T/C (second compound 0.000949 µM, first compound 0.1 µM): 69.4%
viability, T/C (second compound 0.000949 µM, first compound 0.316 µM): 71.7%
viability, T/C (second compound 0.000949 µM, first compound 1 µM): 59%
viability, T/C (second compound 0.000949 µM, first compound 3.16 µM): 66.7%
viability, T/C (second compound 0.000949 µM, first compound 10 µM): 58.7%
viability, T/C (second compound 0.003 µM, first compound 0.0316 µM): 63.6%
viability, T/C (second compound 0.003 µM, first compound 0.1 µM): 57.7%
viability, T/C (second compound 0.003 µM, first compound 0.316 µM): 62.1%
viability, T/C (second compound 0.003 µM, first compound 1 µM): 63.4%
viability, T/C (second compound 0.003 µM, first compound 3.16 µM): 69.3%
viability, T/C (second compound 0.003 µM, first compound 10 µM): 71.3%
viability, T/C (second compound 0.00949 µM, first compound 0.0316 µM): 72.2%
viability, T/C (second compound 0.00949 µM, first compound 0.1 µM): 70.8%
viability, T/C (second compound 0.00949 µM, first compound 0.316 µM): 79.8%
viability, T/C (second compound 0.00949 µM, first compound 1 µM): 73.4%
viability, T/C (second compound 0.00949 µM, first compound 3.16 µM): 71.8%
viability, T/C (second compound 0.00949 µM, first compound 10 µM): 56.4%
viability, T/C (second compound 0.03 µM, first compound 0.0316 µM): 97.1%
viability, T/C (second compound 0.03 µM, first compound 0.1 µM): 93.7%
viability, T/C (second compound 0.03 µM, first compound 0.316 µM): 93.9%
viability, T/C (second compound 0.03 µM, first compound 1 µM): 81%
viability, T/C (second compound 0.03 µM, first compound 3.16 µM): 75.9%
viability, T/C (second compound 0.03 µM, first compound 10 µM): 59.5%
viability, T/C (second compound 0.0949 µM, first compound 0.0316 µM): 98.8%
viability, T/C (second compound 0.0949 µM, first compound 0.1 µM): 94%
viability, T/C (second compound 0.0949 µM, first compound 0.316 µM): 94.5%
viability, T/C (second compound 0.0949 µM, first compound 1 µM): 76.2%
viability, T/C (second compound 0.0949 µM, first compound 3.16 µM): 67.2%
viability, T/C (second compound 0.0949 µM, first compound 10 µM): 50.2%
viability, T/C (second compound 0.3 µM, first compound 0.0316 µM): 97.5%
viability, T/C (second compound 0.3 µM, first compound 0.1 µM): 86.1%
viability, T/C (second compound 0.3 µM, first compound 0.316 µM): 81.5%
viability, T/C (second compound 0.3 µM, first compound 1 µM): 71.2%
viability, T/C (second compound 0.3 µM, first compound 3.16 µM): 65.6%
viability, T/C (second compound 0.3 µM, first compound 10 µM): 45.6%

IC50 (compound alone, run of 08/20/2024): > 300 nM
Structure (SMILES): CCn1c(-c2cccnc2C(C)OC)c2c3cc(ccc31)N1CCOC(CC(NC(=O)C(C(C)C)N(C)C(=O)C3(F)CCN(C(=O)C#CC(C)(C)N(C)C)CC3)C(=O)N3CCCC(N3)C(=O)OCC(C)(C)C2)C1 (stereo unspecified)
viability, T/C (compound 0.000949 µM): 86.3% [middle of 8 runs]
viability, T/C (compound 0.003 µM): 81.2% [middle of 8 runs]
viability, T/C (compound 0.00949 µM): 79.2% [middle of 8 runs]
viability, T/C (compound 0.03 µM): 79% [middle of 8 runs]
viability, T/C (compound 0.0949 µM): 72.1% [middle of 8 runs]
viability, T/C (compound 0.3 µM): 72.7% [middle of 8 runs]

IC50 (curve of compound): 25.1 nM [middle of 4 runs]
Structure (SMILES): CC(C)n1nc(-c2ccc3oc(N)nc3c2)c2c(N)ncnc21
viability, T/C (compound 0.000316 µM): 105% [middle of 4 runs]
viability, T/C (compound 0.00316 µM): 98.2% [middle of 4 runs]
viability, T/C (compound 0.0316 µM): 41.3% [middle of 4 runs]
viability, T/C (compound 0.1 µM): 15.5% and 26.6% (2×) and 20%

IC50 (curve of first compound, second compound 0.00316 µM): 4030 nM
IC50 (curve of first compound, second compound 0.01 µM): 1190 nM
IC50 (curve of first compound, second compound 0.0316 µM): 1640 nM
IC50 (curve of first compound, second compound 0.1 µM): 1290 nM
IC50 (curve of first compound, second compound 0.316 µM): 710 nM
IC50 (curve of first compound, second compound 1 µM): 745 nM
Structure (SMILES): CC1(O)CCCC1n1c(=O)c(C(F)F)cc2cnc(NC3CCN(S(C)(=O)=O)CC3)nc21 (stereo unspecified) + C=CC(=O)N1CCN(c2nc(OCC3CCCN3C)nc3c(F)c(-c4nc(N)cc(C)c4C(F)(F)F)c(Cl)cc23)C(C)C1
viability, T/C (second compound 0.00316 µM, first compound 0.0316 µM): 105%
viability, T/C (second compound 0.00316 µM, first compound 0.1 µM): 79.9%
viability, T/C (second compound 0.00316 µM, first compound 0.316 µM): 68.2%
viability, T/C (second compound 0.00316 µM, first compound 1 µM): 64%
viability, T/C (second compound 0.00316 µM, first compound 3.16 µM): 71.9%
viability, T/C (second compound 0.00316 µM, first compound 10 µM): 2.13%
viability, T/C (second compound 0.01 µM, first compound 0.0316 µM): 96.1%
viability, T/C (second compound 0.01 µM, first compound 0.1 µM): 75.3%
viability, T/C (second compound 0.01 µM, first compound 0.316 µM): 49.5%
viability, T/C (second compound 0.01 µM, first compound 1 µM): 68.7%
viability, T/C (second compound 0.01 µM, first compound 3.16 µM): 34.4%
viability, T/C (second compound 0.01 µM, first compound 10 µM): 2.51%
viability, T/C (second compound 0.0316 µM, first compound 0.0316 µM): 88.1%
viability, T/C (second compound 0.0316 µM, first compound 0.1 µM): 84.9%
viability, T/C (second compound 0.0316 µM, first compound 0.316 µM): 56.4%
viability, T/C (second compound 0.0316 µM, first compound 1 µM): 63.1%
viability, T/C (second compound 0.0316 µM, first compound 3.16 µM): 43.9%
viability, T/C (second compound 0.0316 µM, first compound 10 µM): 2.83%
viability, T/C (second compound 0.1 µM, first compound 0.0316 µM): 94.5%
viability, T/C (second compound 0.1 µM, first compound 0.1 µM): 78.7%
viability, T/C (second compound 0.1 µM, first compound 0.316 µM): 59.2%
viability, T/C (second compound 0.1 µM, first compound 1 µM): 53.1%
viability, T/C (second compound 0.1 µM, first compound 3.16 µM): 48.4%
viability, T/C (second compound 0.1 µM, first compound 10 µM): 2.13%
viability, T/C (second compound 0.316 µM, first compound 0.0316 µM): 102%
viability, T/C (second compound 0.316 µM, first compound 0.1 µM): 71.1%
viability, T/C (second compound 0.316 µM, first compound 0.316 µM): 58.7%
viability, T/C (second compound 0.316 µM, first compound 1 µM): 45.3%
viability, T/C (second compound 0.316 µM, first compound 3.16 µM): 41.2%
viability, T/C (second compound 0.316 µM, first compound 10 µM): 2.43%
viability, T/C (second compound 1 µM, first compound 0.0316 µM): 95%
viability, T/C (second compound 1 µM, first compound 0.1 µM): 80.7%
viability, T/C (second compound 1 µM, first compound 0.316 µM): 43.7%
viability, T/C (second compound 1 µM, first compound 1 µM): 60.7%
viability, T/C (second compound 1 µM, first compound 3.16 µM): 42.2%
viability, T/C (second compound 1 µM, first compound 10 µM): 2.22%
